The test system of this assay is E. faecalis merz96. Briefly: microbe, parasite or virus in culture. The format is cell-based, Enterococcus faecalis. The settings on record: Enterococcus faecalis, MERZ96, read-out: Vancomycin MIC.

SMILES strings stand for the structures. In brackets after ≈: the same amount, converted by molar mass.

Procedure: The MIC of vancomycin was determined by the microdilution method described in the guidelines of the European Committee on Antimicrobial Susceptibility Testing (EUCAST 2024, v14.0 Breakpoint Tables).[58] For enterococci, GM17 medium was used instead of CAMH medium since enterococci cannot degrade starch, the main carbohydrate of MH medium. 2-fold serial dilutions of the tested antibiotic were performed to obtain concentrations ranging from 0.5 to 512 μg/mL. LP were then added to the wells at the desired concentration. The medium was inoculated with a final inoculum of 5 × 10^5 CFU/mL. The MIC is the lowest concentration that prevents visible in vitro growth.

In the case of `CN[C@H](CC(C)C)C(=O)N[C@H]1C(=O)N[C@@H](CC(N)=O)C(=O)N[C@H]2C(=O)N[C@H]3C(=O)N[C@H](C(=O)N[C@H](C(=O)O)c4cc(O)cc(O)c4-c4cc3ccc4O)[C@H](O)c3ccc(c(Cl)c3)Oc3cc2cc(c3O[C@@H]2O[C@H](CO)[C@@H](O)[C@H](O)[C@H]2O[C@H]2C[C@](C)(N)[C@H](O)[C@H](C)O2)Oc2ccc(cc2Cl)[C@H]1O` [Vancomycin], the MIC worked out at 32 mg/L (≈ 22.1 µM).

For the origin of these results see publication PMC11872507, “Lasso peptides sviceucin and siamycin I exhibit anti-virulence activity and restore vancomycin effectiveness in vancomycin-resistant pathogens” (iScience, 2025).
